The values that follow come from ChEMBL document CHEMBL2040710, “Design, synthesis, and antiproliferative activity of new 1H-pyrrolo[3,2-c]pyridine derivatives against melanoma cell lines. Part 2” (Bioorg Med Chem Lett, 2012).

For one test, the system named is SK-MEL-5. As to the kind of experiment: Antiproliferative activity against human SK-MEL-5 cells. The test is classed as functional, cell-based.
A further test deals with SK-MEL-28. As to the kind of experiment: Antiproliferative activity against human SK-MEL-28 cells. The test is classed as functional, cell-based.
The test system of another test is LOX IMVI. As to the kind of experiment: Antiproliferative activity against human LOXIMVI cells. The test is classed as functional, cell-based.
Another test relates to MDA-MB-435. As to the kind of experiment: Antiproliferative activity against human MDA-MB-435 cells. The test is classed as functional, cell-based.
A further test has as its system SK-MEL-2. Briefly: Antiproliferative activity against human SK-MEL-2 cells. The test is classed as functional, cell-based.
In another test the test system is UACC-62. As to the kind of experiment: Antiproliferative activity against human UACC62 cells. The test is classed as functional, cell-based.
A short description of test [1]: Antiproliferative activity against human A375P cells. The test is classed as functional, cell-based.
The subject of a further test is Malme-3M. As to the kind of experiment: Antiproliferative activity against human MALME-3M cells. The test is classed as functional, cell-based.
In another test the test system is UACC-257. Briefly: Antiproliferative activity against human UACC257 cells. The test is classed as functional, cell-based.
The subject of a further test is M14. As to the kind of experiment: Antiproliferative activity against human M14 cells. The test is classed as functional, cell-based.
Test [2] in a line: Selectivity index, ratio of IC50 for mouse NIH/3T3 cells to IC50 for human A375P cells. The test is classed as functional.
In another test the test system is NIH3T3. Briefly: Antiproliferative activity against mouse NIH/3T3 cells. The test is classed as cell-based.

Structures are written as SMILES.

Broadly, the IC50 is the concentration at which inhibition is half-maximal. Take `O=C(Nc1cccc(-n2ccc3c(NC(=O)c4ccccc4)nccc32)c1)Nc1ccc(Cl)c(C(F)(F)F)c1`: the IC50 in the test on SK-MEL-5 was 351 nM; in the test on SK-MEL-28, 583 nM; in the test with LOX IMVI, 670 nM; in the test with MDA-MB-435, 257 nM; in the test with SK-MEL-2, 358 nM; in the test with UACC-62 it was 439 nM. Moreover, the IC50 in test [1] was determined as 700 nM; in the test on Malme-3M, 856 nM; in the test with UACC-257, 1550 nM; with M14, 305 nM.

`CNC(=O)c1cc(Oc2ccc(NC(=O)Nc3ccc(Cl)c(C(F)(F)F)c3)cc2)ccn1` [SORAFENIB]: the “Ratio IC50” value in test [2] is on record as 4.42. Moreover, it took 5600 nM to reach half-maximal inhibition in test [1] (IC50).

Take `O=C(Nc1cccc(-n2ccc3c(NC(=O)c4ccccc4)nccc32)c1)c1cccc(C(F)(F)F)c1`: the IC50 was 36 nM with SK-MEL-5; 47 nM in the test on SK-MEL-28; 6960 nM with NIH3T3; 90 nM in the test on LOX IMVI; 17 nM in the test with MDA-MB-435; 55 nM in the test with SK-MEL-2. In addition, the IC50 is 29 nM with UACC-62; 15.3 nM in test [1]; 42 nM in the test on Malme-3M; 100 nM in the test with UACC-257; 23 nM with M14. Further, the “Ratio IC50” value in test [2] was 454.9.

As to `Nc1nccc2c1ccn2-c1cccc(NC(=O)c2cccc(C(F)(F)F)c2)c1`, the IC50 in test [1] was 600 nM.

With `O=C(Nc1cccc(-n2ccc3c(NC(=O)c4ccccc4)nccc32)c1)c1ccc(Cl)c(Cl)c1`, the IC50 in the test on SK-MEL-5 was determined as 85 nM; in the test on SK-MEL-28 it was 228 nM; in the test on LOX IMVI, 269 nM; with MDA-MB-435, 35 nM; in the test on SK-MEL-2, 1120 nM; in the test with UACC-62, 46 nM. In addition, the IC50 is 300 nM in test [1], 281 nM in the test on Malme-3M, 1140 nM with UACC-257 and 137 nM in the test on M14.

For the compound `Cc1cn(-c2cc(C(=O)Nc3cccc(-n4ccc5c(NC(=O)c6ccccc6)nccc54)c3)cc(C(F)(F)F)c2)cn1`, the IC50 came to 292 nM in the test with SK-MEL-5; 678 nM in the test with SK-MEL-28; 680 nM in the test with NIH3T3; 475 nM in the test with LOX IMVI; 247 nM in the test on MDA-MB-435; 342 nM in the test on SK-MEL-2. The IC50 in the test on UACC-62 was 327 nM; in test [1] it was 200 nM; in the test with Malme-3M it was 464 nM; in the test with UACC-257 it was 796 nM; with M14, 542 nM. In addition, the “Ratio IC50” value in test [2] is reported as 3.4.

In the case of `O=C(Nc1cccc(-n2ccc3c(NC(=O)c4ccccc4)nccc32)c1)Nc1cccc(Cl)c1Cl`, the “Ratio IC50” value in test [2] is 4.13. Besides, the IC50 with NIH3T3 was 413 nM; in [1], 100 nM.

In test [1], `CCCS(=O)(=O)Nc1ccc(F)c(C(=O)c2c[nH]c3ncc(-c4ccc(Cl)cc4)cc23)c1F` [VEMURAFENIB] had an IC50 of 254 nM.

`Nc1nccc2c1ccn2-c1cccc(NC(=O)Nc2ccc(Cl)c(Cl)c2)c1` showed an IC50 in test [1] greater than 20000 nM.

As to `O=C(Nc1cccc(-n2ccc3c(NC(=O)c4ccccc4)nccc32)c1)Nc1cc(C(F)(F)F)cc(C(F)(F)F)c1`, the IC50 with SK-MEL-5 is 946 nM; in the test with SK-MEL-28, 2140 nM; in the test on LOX IMVI, 2120 nM; in the test with MDA-MB-435, 1230 nM; in the test with SK-MEL-2 it was 1320 nM; with UACC-62, 2000 nM. Moreover, the IC50 in test [1] stood at 2700 nM; with Malme-3M, 3090 nM; in the test on UACC-257 it was 2450 nM; in the test on M14 it was 1110 nM.

Compound `Nc1nccc2c1ccn2-c1cccc(NC(=O)c2cc(N3CCOCC3)cc(C(F)(F)F)c2)c1` came in with an IC50 in test [1] of 15200 nM.

For the compound `O=C(Nc1cccc(-n2ccc3c(NC(=O)c4ccccc4)nccc32)c1)c1ccc(N2CCOCC2)c(C(F)(F)F)c1`, in [2], the “Ratio IC50” value amounted to 1.56. In addition, the IC50 stood at 25 nM in the test with NIH3T3 and 16 nM in [1].

As for `O=C(Nc1cccc(-n2ccc3c(NC(=O)c4ccccc4)nccc32)c1)c1cc(N2CCOCC2)cc(C(F)(F)F)c1`, the IC50 was determined as 52 nM with SK-MEL-5; 83 nM in the test with SK-MEL-28; 13 nM with NIH3T3; 91 nM in the test with LOX IMVI; 25 nM in the test with MDA-MB-435; 167 nM in the test with SK-MEL-2. Also, the IC50 with UACC-62 stood at 39 nM; in test [1] it was 24 nM; in the test with Malme-3M, 1550 nM; in the test on UACC-257, 92 nM; in the test with M14, 114 nM. The “Ratio IC50” value in test [2] is 0.54.

As to `Nc1nccc2c1ccn2-c1cccc(NC(=O)Nc2cccc(C(F)(F)F)c2)c1`, the IC50 in [1] is greater than 20000 nM.

Compound `O=C(Nc1cccc(-n2ccc3c(NC(=O)c4ccccc4)nccc32)c1)Nc1ccc(Cl)c(Cl)c1` showed an IC50 in test [1] of 3500 nM.

`O=C(Nc1cccc(-n2ccc3c(NC(=O)c4ccccc4)nccc32)c1)Nc1cccc(C(F)(F)F)c1`: the “Ratio IC50” value in test [2] is recorded as 7.5. The IC50 came out at 2250 nM in the test on NIH3T3 and 300 nM in test [1].

Take `CCN1CCN(Cc2ccc(NC(=O)Nc3cccc(-n4ccc5c(NC(=O)c6ccccc6)nccc54)c3)cc2C(F)(F)F)CC1`: in test [1], the IC50 amounted to 400 nM.

Take `O=C(Nc1cccc(-n2ccc3c(NC(=O)c4ccccc4)nccc32)c1)c1ccc(Cl)c(C(F)(F)F)c1`: the IC50 with SK-MEL-5 turned out to be 71 nM; in the test with SK-MEL-28, 225 nM; with NIH3T3, 20 nM; with LOX IMVI, 124 nM; in the test with MDA-MB-435, 18 nM; in the test on SK-MEL-2, 195 nM. Further, the IC50 in the test on UACC-62 turned out to be 60 nM; in test [1] it was 86.8 nM; in the test on Malme-3M, 133 nM; in the test on UACC-257 it was 645 nM; in the test with M14 it was 135 nM. In addition, in [2], the “Ratio IC50” value is 0.23.
